Data on 1 molecule can be found in paper PMC9605374 (Marine Drugs, 2022).

Molecules are shown by their SMILES.

Details of assay [1]: method as in PMID 27355960. The conditions noted are these: no hemolytic activity; cited from earlier work.
Assay [2] relates to PC3-DR cells. Put plainly: Drug combination study NB with docetaxel, MTT assay, SynergyFinder 2.0. The assay is classed as cell-based. The conditions noted are these: Homo sapiens, 24 h. As for the experimental part:
Thus, drug-resistant PC3-DR cells were treated with docetaxel in combination with NB (Figure 9). Potential synergism between NB and docetaxel was measured by the Chou–Talalay method as described before.
Figure 9 Combinational treatment on PC3-DR cells with NB and docetaxel. […] MTT assay was used to examine cellular viability. Number of replicates n = 3. (A) The heatmap represents cytotoxicity (viability inhibition) of the individual drugs or their combinations. (B,C) To calculate and visualize in 2D (B) or 3D (C) the effect of the drug combination (synergism/additive effect/antagonism), the SynergyFinder v. 2.0 software (Network Pharmacology for Precision Medicine in the Research Program of System Oncology, Faculty of Medicine at University of Helsinki, Helsinki, Finland) and a ZIP reference model were used. Green regions indicate antagonism, white regions refer to additive effect, and red regions indicate synergism.
The experiments were carried out as previously reported. […] 22Rv1 cells (6 × 10^3 cells/well in 96-well plates) were simultaneously treated with NB and docetaxel; or pretreated with MAPK inhibitors for 1 h following treatment with NB in the total media volume of 100 µL/well. Following 24 h of incubation, the viability of the cells treated with individual drugs as well as their combinations was determined using MTT assay. […] Red areas (positive δ-values) and green areas (negative δ-values) indicate synergism and antagonism, respectively.

The subject of assay [3] is p38 in 22Rv1 cells. Briefly: Western blotting, MAPK activation. It counts as cell-based, human. The conditions noted are these: 22Rv1, 1 µM or 10 µM, 2 h. As for the experimental part:
(§1) We examined several time points, specifically, 15 min, 2 h, and 48 h (Figure 6).
(§2) Figure 6 Validation of kinome analysis data. 22Rv1 cells were treated with 1 µM or 10 µM of NB for the indicated time. The protein expression was analyzed by Western blotting using total protein load equal to 30 µg/slot. α-Tubulin was used as a loading control.
(§3) The Western blot assay was executed as previously described: 1 × 10^6 cells were seeded in Petri dishes (ø 6 cm, 5 mL/dish) and incubated overnight. On the next day, the cells were treated with the compounds in fresh culture media (5 mL/dish) for the indicated time. Next, cells were harvested with a cell scraper and lysed in lysis buffer including protease and phosphatase inhibitors cocktail (Roche, Mannheim, Germany). Cell debris were removed from the protein lysates via centrifugation. Afterwards, the cell-free protein mixtures were separated in gradient ready-made Mini-PROTEAN® TGX Stain-Free^TM gels (Bio-Rad, Hercules, CA, USA) using SDS-PAGE (sodium dodecylsulfate polyacrylamide gel electrophoresis). Then, the proteins were blotted onto ø 0.2 µm pore PVDF membrane. The membrane was blocked and consequently treated with primary and secondary antibodies for protein detection. The signals were detected using the ECL chemiluminescence system (Thermo Scientific, Rockford, IL, USA).
(In general: In western blotting, separated proteins are transferred to a membrane and probed.)

Assay [4] deals with JNK1/2 in 22Rv1 cells. Briefly: Western blotting, MAPK activation. The assay is classed as cell-based, human. The conditions noted are these: 22Rv1, 1 µM or 10 µM. As for the experimental part: as §1, §2, §3
For assay [5], the system named is ERK1/2 in 22Rv1 cells. Briefly: Western blotting, MAPK activation. The assay is classed as cell-based, human. The conditions noted are these: 22Rv1, 1 µM or 10 µM. As for the experimental part: as §1, §2, §3
For assay [6], the system named is panel of 14 human cancer cell lines and one prostate cancer cell line DU145. Also noted: method as in PMID 26039736. The conditions noted are these: panel of 14 human cancer cell lines and DU145, no significant anticancer activity; cited from earlier work.
Assay [7] has as its system serine-/threonine kinases (JNK1/2, p38) in 22Rv1 cells. Briefly: Kinome profiling of serine/threonine kinases (PamGene), upstream kinase analysis. It counts as cell-based, human. The conditions noted are these: 22Rv1, 1 µM and 10 µM, 2 h. The source says:
To further investigate the mechanism of anticancer action of NB, we examined the effects of the compound on serine-/threonine protein kinases. Protein kinases modify target molecules (proteins) via phosphorylation, thus, altering their activity. A subgroup of these kinases—serine-/threonine kinases (STK)—play a key role in various essential processes related to cell death and cell survival. Consequently, protein kinases, in general, are important target molecules for various anticancer drugs. Specifically, modification of STKs’ activity has been exploited as a mechanism of action. Several clinically approved drugs, such as sunitinib, palbociclib, cobimetinib, and axitinib, utilize this mechanism to execute their therapeutic action. Thus, we performed functional kinomics using the microarray-based PamGene technology. This method allows a systematic examination of the changes in STK activity (http://www.pamgene.de, accessed on 22 January 2022, Figure 5A–D). We used two different concentrations, specifically, 1 µM and 10 µM, in order to cover different biological effects, which may take place at the different drug doses (Figure 5A). […]
Figure 5 Kinome profiling of serine/threonine kinases (STKs). 22Rv1 cells were incubated with NB for 2 h; the proteins were extracted and STK were analyzed using functional kinome profiling. […]

For assay [8], the system named is LC3B-I/II in 22Rv1 cells. Put plainly: Western blotting, autophagy marker. It counts as cell-based, human. As for the experimental part:
as §1, §2, §3

As usually defined, the IC50 is the point on the concentration scale where inhibition reaches its midpoint. As usually defined, the inhibition is the percentage by which the read-out fell short of the control.

Consider `COc1ccc(C2SSC34CC5(O)C(Cl)C=CC(O)C5ON3C(=O)C2N(C)C4=O)c(O)c1OC` (stereo not drawn) [NB, N-methylpretrichodermamide B], for which the IC50 in assay [1] is no less than 100 µM. In assay [2], the inhibition at 0.22 µM came out at 9.85%, the inhibition at 0.67 µM came out at 15.5%, the inhibition at 2 µM was 14.3% and the inhibition at 6 µM is 17.2%. Moreover, in assay [3], the “activation of p38” value was “activation of p38”. Further, in assay [4] (2 h), the JNK1/2 phosphorylation entry was “pronounced JNK1/2 phosphorylation”. Also, the JNK1/2 phosphorylation result in assay [4] (48 h) is “no phosphorylation (or even slight downregulation)”. In addition, the “activation of ERK1/2” value in assay [5] is recorded as “no activation”. The IC50 in assay [6] was greater than 10 µM. Besides, the “upstream kinase analysis, JNK1/2 and p38 kinases” value in assay [7] is reported as “very likely upregulated”. In addition, the “effect on autophagy (LC3B-I/II expression)” value in assay [8] is reported as “no significant effect on autophagy”.
